Reference: paper PMC6114082, “Synthesis of aminophenylhydroxamate and aminobenzylhydroxamate derivatives and in vitro screening for antiparasitic and histone deacetylase inhibitory activity” (International Journal for Parasitology: Drugs and Drug …, 2018)
Where two headings read alike, the source gives them in different places.

Assays:
[1] = Cytotoxicity, MTT assay, THP-1; assay type: cell-based, human; settings: human, THP-1 cells (monocytic cell line); MTT assay
Procedure: (§1) The human monocytic cell line THP-1 was cultivated in RPMI medium supplemented with 10% FCS, 2 mM GlutaMAX, 100 U/ml penicillin, and 100 μg/ml streptomycin. HFF cells were cultivated in Dulbecco's modified Eagle's medium (DMEM) with Earle's salts containing 10% FCS, 10 mM HEPES, 1 mM sodium pyruvate, 2 mM GlutaMAX, 100 U/ml penicillin, and 100 μg/ml streptomycin. The THP-1 and HFF cells were maintained in a 5% CO2 incubator at 37 °C. Cytotoxicity was evaluated via the MTT assay, and the IC50 values were calculated using Prism software (Prism 4 for Mac OS X, version 5.0b, December, 2008).

T. gondi RH-YFP [2] = experiment: Anti-Toxoplasma activity in infected HFF monolayers, type I RH-YFP (parasitic index); assay type: cell-based, Toxoplasma gondii; settings: for IS^a selectivity index for T. gondi: IC50 HFF / IC50 T. gondi RH-YFP; for IC50: 24 h, type I strain, in HFF, read-out: T. gondi RH-YFP IC50
[3] = Cytotoxicity, MTT assay, HFF; assay type: cell-based, human; settings: human, HFF cells
Procedure: as §1

[4] = tested on: L. tropica MHOM/BR/73/5-ASKM; experiment: Antileishmanial activity, L. tropica promastigotes; assay type: cell-based, Leishmania tropica
Procedure: (§2) The antitrypanosomatid activity of the compounds was ascertained as follows. Leishmania parasites were cultured at 26 °C in SDM-79 medium supplemented with 10% fetal calf serum (FCS), and the antileishmanial activity was determined according to a previously published protocol for LUC-expressing and wild-type Leishmania ([Sereno et al., 2001], [Abbassi et al., 2008]). Trypanosoma brucei gambiense were grown at 26 °C in Cunningham's medium supplemented with 10% FCS, 2 mM GlutaMAX-1 (Gibco, USA), 100 U/ml penicillin, 100 μg/ml streptomycin and […] bovine hemin. The epimastigote form of Trypanosoma cruzi (strain Y cl7 scl2, lineage Tc2) (kindly provided by Philippe Truc and Christian Barnabé, UMR 177 IRD-CIRAD InterTryp, Montpellier, France) were grown at 26 °C in liver infusion tryptose (LIT) medium, supplemented with 10% FCS, 2 mM GlutaMAX™-I, 100 U/ml penicillin, 100 μg/ml streptomycin and bovine hemin (20 mg/l) (Gibco). The antitrypanosomatids activity was determined using a protocol that was initialy set up for wild-type Leishmania ([Abbassi et al., 2008]). To assess the drug activity on Toxoplasma gondii, confluent human foreskin fibroblast (HFF) monolayers were infected with YFP-type I Rh kindly provided by B. Striepen, see ([Striepen et al., 1998]) or Tomato-type II Pru kindly provided by N. Blanchard (Toulouse), expressing parasites at 5 × 10^4 per well, which were then centrifuged for 30 s at 1300 rpm and incubated for 30 min in a water bath at 37 °C to allow invasion. The wells were then washed three times with PBS to eliminate extracellular parasites, and the drugs were added at various concentrations ranging from 1 to 50 μM. After incubation for 24 h at 37 °C in a humidified atmosphere containing 5% CO2, the cells were fixed in 2.5% methanol-free formaldehyde (Tebu-bio)/PBS for 30 min at room temperature. Nuclei were stained with Hoechst 33258 (2 μg/ml, Molecular Probes) for 20 min and then washed three times with water for 10 min each time. The number of infected cells, i.e., cells harboring a parasitophorous vacuole, and the number of parasites per vacuole were determined using an Olympus ScanR microscope ( × 20 objective) and ScanR software. The parasitic index in % compared to the control was calculated as follows: (PI=((number of parasite/100 cells in treated wells) x (% of infected macrophage in treated well)/(number of parasite/100 cells in untreated wells) x (% of infected macrophage in untreated wells))*100).

[5] = tested on: L. infantum MHOM/MA/67/ITMAP-264; experiment: Antileishmanial activity, L. infantum promastigotes (luciferase expressing strain); assay type: cell-based, Leishmania infantum; settings: for IS^b selectivity index for L. infantum: IC50 THP-1 / IC50 Leishmania infantum (footnote); for IC50: promastigotes, luciferase expressing strain
Procedure: as §2

[6] = tested on: HeLa nuclear extract (HDAC 1, 2, 6, and 8 predominant); experiment: Fluorometric HDAC assay, HeLa nuclear extract; assay type: biochemical; settings: HeLa nuclear extract; read-out: HDACi HeLa IC50
Procedure: The HDACi effect against HeLa nuclear extracts and recombinant proteins were measured using a fluorometric HDAC assay kit (Active Motif, Belgium) according to the manufacturer's instructions. […] A negative control containing trichostatin A at a final concentration of 2 μM was analyzed for each independent experiment.

[7] = tested on: T. brucei MHOM/CI/81/DAL967; experiment: Antitrypanosomal activity, T. brucei; assay type: cell-based, Trypanosoma brucei gambiense
Procedure: as §2

[8] = tested on: L. braziliensis MHOM/BR/75/M209; experiment: Antileishmanial activity, L. braziliensis promastigotes (luciferase expressing strain); assay type: cell-based, Leishmania braziliensis
Procedure: as §2

Leishmania = experiment: Antileishmanial activity, Leishmania species summarised in text; assay type: cell-based, Leishmania spp.; settings: abstract sentence also covers antitrypanosomal activity, read-out: antileishmanial activity IC50, summarised over species
Procedure: The antitrypanosomatid activity of the compounds was ascertained as follows. Leishmania parasites were cultured at 26 °C in SDM-79 medium supplemented with 10% fetal calf serum (FCS), and the antileishmanial activity was determined according to a previously published protocol for LUC-expressing and wild-type Leishmania ([Sereno et al., 2001], [Abbassi et al., 2008]). Trypanosoma brucei gambiense were grown at 26 °C in Cunningham's medium supplemented with 10% FCS, 2 mM GlutaMAX-1 (Gibco, USA), 100 U/ml penicillin, 100 μg/ml streptomycin and 20 mg/ml bovine hemin. […] The antitrypanosomatids activity was determined using a protocol that was initialy set up for wild-type Leishmania ([Abbassi et al., 2008]). […] The number of infected cells, i.e., cells harboring a parasitophorous vacuole, and the number of parasites per vacuole were determined using an Olympus ScanR microscope ( × 20 objective) and ScanR software. The parasitic index in % compared to the control was calculated as follows: (PI=((number of parasite/100 cells in treated wells) x (% of infected macrophage in treated well)/(number of parasite/100 cells in untreated wells) x (% of infected macrophage in untreated wells))*100).

T. gondi RH-YFP [9] = tested on: T. gondi RH-YFP; set-up: method as in Butler et al., 2013; settings: ref Butler et al., 2013; read-out: anti-Toxoplasma IC50, literature; cited from earlier work
THP-1 cells = experiment: Cytotoxicity, MTT assay, THP-1; assay type: cell-based, human; settings: MTT assay
Procedure: as §1

HFF cells = experiment: Cytotoxicity, MTT assay, HFF; assay type: cell-based, human
Procedure: as §1

Structure (SMILES): COc1cccc(CC(=O)NCc2ccc(C(=O)NO)cc2)c1 [Compound 362, N-hydroxy-4-{[2-(3-methoxyphenyl)acetamido]methyl}benzamide]
- IC50 [1]: 30.5 ± 3 µM
- IS^a selectivity index for T. gondi (T. gondi RH-YFP [2]): >7.6
- IC50 (T. gondi RH-YFP [2]; Toxoplasma gondii): > 50 µM
- IC50 [3]: > 400 µM
- IC50 ([4]; Leishmania tropica): > 60 µM
- IS^b selectivity index for L. infantum [5]: <1
- IC50 ([5]; Leishmania infantum): > 60 µM
- IC50 [6]: 0.518 ± 0.146 µM
- IC50 ([7]; Trypanosoma brucei): > 60 µM
- IC50 ([8]; Leishmania braziliensis): > 60 µM

Structure (SMILES): O=C(NO)c1ccc(CNC(=O)c2cccc(F)c2)cc1 [Compound 345, 4-{[(3-fluorophenyl)formamido]methyl}-N-hydroxybenzamide]
- IS^a selectivity index for T. gondi (T. gondi RH-YFP [2]): 11.6
- IC50 [3]: 58.3 ± 1.2 µM
- IC50 ([4]; Leishmania tropica): 35.3 ± 12.2 µM
- IS^b selectivity index for L. infantum [5]: 0.3
- IC50 ([5]; Leishmania infantum): 27.2 ± 2.5 µM
- IC50 [6]: 0.866 ± 0.4 µM
- IC50 (Leishmania): 15 to 50 µM
- IC50 ([7]; Trypanosoma brucei): > 60 µM
- IC50 ([8]; Leishmania braziliensis): 23.5 ± 1.5 µM

Structure (SMILES): O=C(NO)c1ccc(NS(=O)(=O)c2cccc(F)c2)cc1 [Compound 351, 4-(3-fluorobenzenesulfonamido)-N-hydroxybenzamide]
- IC50 [1]: 33.5 ± 15 µM
- IC50 (T. gondi RH-YFP [2]; Toxoplasma gondii): > 50 µM
- IC50 [3]: 116 ± 3 µM
- IC50 ([4]; Leishmania tropica): > 60 µM
- IS^b selectivity index for L. infantum [5]: <1
- IC50 ([5]; Leishmania infantum): > 60 µM
- IC50 [6]: 0.881 ± 0.083 µM
- IC50 ([7]; Trypanosoma brucei): > 60 µM
- IC50 ([8]; Leishmania braziliensis): > 60 µM

Structure (SMILES): CCc1nc(N)nc(N)c1-c1ccc(Cl)cc1 [pyrimethamine]
- IC50 (T. gondi RH-YFP [9]): 0.4 µM

Structure (SMILES): Cc1nc(-c2ccc(C(=O)NCc3ccc(C(=O)NO)cc3)cc2)cs1 [Compound 360]
- IC50 (THP-1 cells): 2.2 ± 0.5 µM
- IC50 (HFF cells): 22.6 ± 9.5 µM
- IC50 [4]: 55 ± 15 µM
- IC50 [5]: > 60 µM
- IC50 [6]: 0.399 ± 0.137 µM
- IC50 [7]: > 60 µM
- IC50 [8]: > 60 µM

Structure (SMILES): Cc1nc(-c2ccc(C(=O)Nc3ccc(C(=O)NO)cc3)cc2)cs1 [Compound 361]
- IC50 (THP-1 cells): > 400 µM
- IC50 (T. gondi RH-YFP [2]): > 50 µM
- IC50 (HFF cells): 25 ± 4 µM
- IC50 [4]: > 60 µM
- IC50 [5]: > 60 µM
- IC50 [6]: > 1.8 µM
- IC50 [7]: > 60 µM
- IC50 [8]: > 60 µM

Structure (SMILES): O=C(NO)c1ccc(NC(=O)c2cccc(F)c2)cc1 [Compound 349, 4-(3-fluorobenzamido)-N-hydroxybenzamide]
- IC50 [1]: 264 ± 8 µM
- IC50 (T. gondi RH-YFP [2]; Toxoplasma gondii): > 50 µM
- IC50 [3]: > 400 µM
- IC50 ([4]; Leishmania tropica): > 60 µM
- IC50 ([5]; Leishmania infantum): > 60 µM
- IC50 [6]: 0.633 ± 0.041 µM
- IC50 ([7]; Trypanosoma brucei): > 60 µM
- IC50 ([8]; Leishmania braziliensis): > 60 µM

Structure (SMILES): O=C(NO)c1ccc(CNS(=O)(=O)c2cccc(F)c2)cc1 [Compound 350, 4-(3-fluorobenzenesulfonamidomethyl)-N-hydroxybenzamide]
- IC50 [1]: > 400 µM
- IS^a selectivity index for T. gondi (T. gondi RH-YFP [2]): 7.5
- IC50 (T. gondi RH-YFP [2]; Toxoplasma gondii): < 50 µM
- IC50 [3]: 300 ± 50 µM
- IC50 ([4]; Leishmania tropica): > 60 µM
- IC50 ([5]; Leishmania infantum): > 60 µM
- IC50 ([7]; Trypanosoma brucei): > 60 µM
- IC50 ([8]; Leishmania braziliensis): > 60 µM
